Reference: patent publication US20260027116A1, “Methods of Treating Chronic Graft-Versus-Host Disease Following Allogeneic Hematopoietic Stem Cell Transplantation” (Kadmon Corporation, LLC, priority 2022, published 2026)

Assays:
lung function = assay: Example 1: percent predicted FEV1 change from baseline; assay type: in vivo, human
Experimental: Change From Baseline in Percent Predicted Forced Expiratory Volume in 1 Second (FEV1) at Each Specified Time Points. FEV1 was the volume of air exhaled from the lungs in the first second of a forced expiration as measured by spirometer. Baseline value was defined as valid and last non-missing value obtained within 28 days prior to participant receiving first study medication. EOT visit was performed within 3 days after the participant's last dose of study drug. […] Analysis was performed on mITT population. Here, ‘number analyzed’=participants with available data for each specified category. Here, ‘O’ in the number analyzed field signifies that none of the participants were available for the analysis at the specified time points.

[1] = pharmacokinetics in healthy subjects (bioavailability, food effect, distribution, excretion); assay type: in vivo, human

## CC(C)NC(=O)COc1cccc(-c2nc(Nc3ccc4[nH]ncc4c3)c3ccccc3n2)c1 [Belumosudil, 2-{3-[4-(1H-indazol-5-ylamino)-2-quinazolinyl]phenoxy}-N-(propan-2-yl) acetamide]
Lung function; Cohort 2: 200 mg BID, Cycle 11, Day 1
  Change From Baseline in Percent Predicted Forced Expiratory Volume in 1 Second (FEV1), Mean (Standard Deviation): −4.0 (8.5) percent predicted FEV1
Lung function; Cohort 2: 200 mg BID, Cycle 12, Day 1
  Change From Baseline in Percent Predicted Forced Expiratory Volume in 1 Second (FEV1), Mean (Standard Deviation): −1.0 (—) percent predicted FEV1
Lung function; Cohort 2: 200 mg BID, Cycle 13, Day 1
  Change From Baseline in Percent Predicted Forced Expiratory Volume in 1 Second (FEV1), Mean (Standard Deviation): −2.5 (14.7) percent predicted FEV1
Lung function; Cohort 2: 200 mg BID, Cycle 14, Day 1
  Change From Baseline in Percent Predicted Forced Expiratory Volume in 1 Second (FEV1), Mean (Standard Deviation): 0.0 (—) percent predicted FEV1
Lung function; Cohort 2: 200 mg BID, Cycle 15, Day 1
  Change From Baseline in Percent Predicted Forced Expiratory Volume in 1 Second (FEV1), Mean (Standard Deviation): −2.3 (5.1) percent predicted FEV1
Lung function; Cohort 2: 200 mg BID, Cycle 16, Day 1
  Change From Baseline in Percent Predicted Forced Expiratory Volume in 1 Second (FEV1), Mean (Standard Deviation): −8.0 (15.6) percent predicted FEV1
Lung function; Cohort 2: 200 mg BID, Cycle 17, Day 1
  Change From Baseline in Percent Predicted Forced Expiratory Volume in 1 Second (FEV1), Mean (Standard Deviation): −6.0 (7.2) percent predicted FEV1
Lung function; Cohort 2: 200 mg BID, Cycle 18, Day 1
  Change From Baseline in Percent Predicted Forced Expiratory Volume in 1 Second (FEV1), Mean (Standard Deviation): −7.5 (10.6) percent predicted FEV1
Lung function; Cohort 2: 200 mg BID, Cycle 19, Day 1
  Change From Baseline in Percent Predicted Forced Expiratory Volume in 1 Second (FEV1), Mean (Standard Deviation): −6.3 (5.5) percent predicted FEV1
Lung function; Cohort 2: 200 mg BID, Cycle 25, Day 1
  Change From Baseline in Percent Predicted Forced Expiratory Volume in 1 Second (FEV1), Mean (Standard Deviation): −12.5 (3.5) percent predicted FEV1
Lung function; Cohort 2: 200 mg BID, Cycle 27, Day 1
  Change From Baseline in Percent Predicted Forced Expiratory Volume in 1 Second (FEV1), Mean (Standard Deviation): −17.0 (9.9) percent predicted FEV1
Lung function; Cohort 2: 200 mg BID, Cycle 29, Day 1
  Change From Baseline in Percent Predicted Forced Expiratory Volume in 1 Second (FEV1), Mean (Standard Deviation): 17.0 (11.3) percent predicted FEV1
Lung function; Cohort 2: 200 mg BID, Cycle 31, Day 1
  Change From Baseline in Percent Predicted Forced Expiratory Volume in 1 Second (FEV1), Mean (Standard Deviation): −19.5 (10.6) percent predicted FEV1
Lung function; Cohort 2: 200 mg BID, Cycle 33, Day 1
  Change From Baseline in Percent Predicted Forced Expiratory Volume in 1 Second (FEV1), Mean (Standard Deviation): −1.0 (33.9) percent predicted FEV1
Lung function; Cohort 2: 200 mg BID, Cycle 35, Day 1
  Change From Baseline in Percent Predicted Forced Expiratory Volume in 1 Second (FEV1), Mean (Standard Deviation): −2.5 (30.4) percent predicted FEV1
Lung function; Cohort 2: 200 mg BID, Cycle 37, Day 1
  Change From Baseline in Percent Predicted Forced Expiratory Volume in 1 Second (FEV1), Mean (Standard Deviation): −22.0 (—) percent predicted FEV1
Lung function; Cohort 2: 200 mg BID, Cycle 39, Day 1
  Change From Baseline in Percent Predicted Forced Expiratory Volume in 1 Second (FEV1), Mean (Standard Deviation): −23.0 (11.3) percent predicted FEV1
Lung function; Cohort 2: 200 mg BID, Cycle 43, Day 1
  Change From Baseline in Percent Predicted Forced Expiratory Volume in 1 Second (FEV1), Mean (Standard Deviation): −21.0 (—) percent predicted FEV1
Lung function; Cohort 2: 200 mg BID, EOT
  Change From Baseline in Percent Predicted Forced Expiratory Volume in 1 Second (FEV1), Mean (Standard Deviation): −10.1 (15.7) percent predicted FEV1
Lung function; Cohort 3: 400 mg QD, Cycle 2, Day 1
  Change From Baseline in Percent Predicted Forced Expiratory Volume in 1 Second (FEV1), Mean (Standard Deviation): −4.8 (6.7) percent predicted FEV1
Lung function; Cohort 3: 400 mg QD, Cycle 3, Day 1
  Change From Baseline in Percent Predicted Forced Expiratory Volume in 1 Second (FEV1), Mean (Standard Deviation): −1.5 (6.2) percent predicted FEV1
Lung function; Cohort 3: 400 mg QD, Cycle 4, Day 1
  Change From Baseline in Percent Predicted Forced Expiratory Volume in 1 Second (FEV1), Mean (Standard Deviation): −0.2 (8.4) percent predicted FEV1
Lung function; Cohort 3: 400 mg QD, Cycle 5, Day 1
  Change From Baseline in Percent Predicted Forced Expiratory Volume in 1 Second (FEV1), Mean (Standard Deviation): 0.5 (5.9) percent predicted FEV1
Lung function; Cohort 3: 400 mg QD, Cycle 6, Day 1
  Change From Baseline in Percent Predicted Forced Expiratory Volume in 1 Second (FEV1), Mean (Standard Deviation): −0.9 (6.4) percent predicted FEV1
Lung function; Cohort 3: 400 mg QD, Cycle 7, Day 1
  Change From Baseline in Percent Predicted Forced Expiratory Volume in 1 Second (FEV1), Mean (Standard Deviation): −0.9 (11.8) percent predicted FEV1
Lung function; Cohort 3: 400 mg QD, Cycle 8, Day 1
  Change From Baseline in Percent Predicted Forced Expiratory Volume in 1 Second (FEV1), Mean (Standard Deviation): −1.1 (8.0) percent predicted FEV1
Lung function; Cohort 3: 400 mg QD, Cycle 9, Day 1
  Change From Baseline in Percent Predicted Forced Expiratory Volume in 1 Second (FEV1), Mean (Standard Deviation): −3.0 (11.8) percent predicted FEV1
Lung function; Cohort 3: 400 mg QD, Cycle 10, Day 1
  Change From Baseline in Percent Predicted Forced Expiratory Volume in 1 Second (FEV1), Mean (Standard Deviation): 2.7 (3.9) percent predicted FEV1
Lung function; Cohort 3: 400 mg QD, Cycle 11, Day 1
  Change From Baseline in Percent Predicted Forced Expiratory Volume in 1 Second (FEV1), Mean (Standard Deviation): −4.4 (15.8) percent predicted FEV1
Lung function; Cohort 3: 400 mg QD, Cycle 12, Day 1
  Change From Baseline in Percent Predicted Forced Expiratory Volume in 1 Second (FEV1), Mean (Standard Deviation): 0.3 (3.6) percent predicted FEV1
Lung function; Cohort 3: 400 mg QD, Cycle 13, Day 1
  Change From Baseline in Percent Predicted Forced Expiratory Volume in 1 Second (FEV1), Mean (Standard Deviation): −3.5 (13.2) percent predicted FEV1
Lung function; Cohort 3: 400 mg QD, Cycle 14, Day 1
  Change From Baseline in Percent Predicted Forced Expiratory Volume in 1 Second (FEV1), Mean (Standard Deviation): −5.1 (9.1) percent predicted FEV1
Lung function; Cohort 3: 400 mg QD, Cycle 15, Day 1
  Change From Baseline in Percent Predicted Forced Expiratory Volume in 1 Second (FEV1), Mean (Standard Deviation): −6.1 (12.6) percent predicted FEV1
Lung function; Cohort 3: 400 mg QD, Cycle 16, Day 1
  Change From Baseline in Percent Predicted Forced Expiratory Volume in 1 Second (FEV1), Mean (Standard Deviation): −4.5 (7.3) percent predicted FEV1
Lung function; Cohort 3: 400 mg QD, Cycle 17, Day 1
  Change From Baseline in Percent Predicted Forced Expiratory Volume in 1 Second (FEV1), Mean (Standard Deviation): −7.9 (15.5) percent predicted FEV1
Lung function; Cohort 3: 400 mg QD, Cycle 18, Day 1
  Change From Baseline in Percent Predicted Forced Expiratory Volume in 1 Second (FEV1), Mean (Standard Deviation): 4.0 (6.0) percent predicted FEV1
Lung function; Cohort 3: 400 mg QD, Cycle 19, Day 1
  Change From Baseline in Percent Predicted Forced Expiratory Volume in 1 Second (FEV1), Mean (Standard Deviation): 0.5 (8.5) percent predicted FEV1
Lung function; Cohort 3: 400 mg QD, Cycle 25, Day 1
  Change From Baseline in Percent Predicted Forced Expiratory Volume in 1 Second (FEV1), Mean (Standard Deviation): −5.0 (11.4) percent predicted FEV1
Lung function; Cohort 3: 400 mg QD, Cycle 27, Day 1
  Change From Baseline in Percent Predicted Forced Expiratory Volume in 1 Second (FEV1), Mean (Standard Deviation): −10.0 (17.0) percent predicted FEV1
Lung function; Cohort 3: 400 mg QD, Cycle 29, Day 1
  Change From Baseline in Percent Predicted Forced Expiratory Volume in 1 Second (FEV1), Mean (Standard Deviation): 0.0 (1.4) percent predicted FEV1
Lung function; Cohort 3: 400 mg QD, Cycle 31, Day 1
  Change From Baseline in Percent Predicted Forced Expiratory Volume in 1 Second (FEV1), Mean (Standard Deviation): −4.0 (—) percent predicted FEV1
Lung function; Cohort 3: 400 mg QD, Cycle 35, Day 1
  Change From Baseline in Percent Predicted Forced Expiratory Volume in 1 Second (FEV1), Mean (Standard Deviation): −4.0 (—) percent predicted FEV1
Lung function; Cohort 3: 400 mg QD, Cycle 36, Day 1
  Change From Baseline in Percent Predicted Forced Expiratory Volume in 1 Second (FEV1), Mean (Standard Deviation): 5.0 (—) percent predicted FEV1
Lung function; Cohort 3: 400 mg QD, Cycle 39, Day 1
  Change From Baseline in Percent Predicted Forced Expiratory Volume in 1 Second (FEV1), Mean (Standard Deviation): −5.0 (—) percent predicted FEV1
Lung function; Cohort 3: 400 mg QD, Cycle 43, Day 1
  Change From Baseline in Percent Predicted Forced Expiratory Volume in 1 Second (FEV1), Mean (Standard Deviation): −7.0 (—) percent predicted FEV1
Lung function; Cohort 3: 400 mg QD, Cycle 47, Day 1
  Change From Baseline in Percent Predicted Forced Expiratory Volume in 1 Second (FEV1), Mean (Standard Deviation): −5.0 (—) percent predicted FEV1
Lung function; Cohort 3: 400 mg QD, Cycle 49, Day 1
  Change From Baseline in Percent Predicted Forced Expiratory Volume in 1 Second (FEV1), Mean (Standard Deviation): −2.0 (—) percent predicted FEV1
Lung function; Cohort 3: 400 mg QD, EOT
  Change From Baseline in Percent Predicted Forced Expiratory Volume in 1 Second (FEV1), Mean (Standard Deviation): −7.4 (14.9) percent predicted FEV1
[1]; high-fat high-calorie meal vs fasted
  food effect, Cmax increase: 2.2 times
[1]; single oral radiolabeled dose
  radioactivity recovered in feces: 85%
  radioactivity recovered in urine: less than 5%
  recovered in feces as unchanged: 30%
